# System: platelets in whole blood
# Assay: Blood coagulability measurement of whole blood by dielectric constant (dielectric coagulometer, DiCA-Ex / DiCA-In)
# Assay type: cell-based, human (healthy subject)
# Method: Measurement of blood coagulability was conducted using the blood put to reaction in the experiment of 3-2 above. The measurement was carried out using a blood coagulation system analyzing device (dielectric coagulometer prototype No. 2), for performing the measurement of dielectric constant of the sample as aforementioned, and a comprehensive hemostatic ability measuring system ROTEM (registered trademark), at a measurement temperature of 37° C.
# In the case of the blood coagulation system analyzing device, measurement of DiCA-Ex to which an aqueous calcium solution (0.2 M Ca) and a commercialized extrinsic stimulus reagent (100 fold dilution+PBS (v/v=1/5)) were added immediately before the start of measurement, and measurement of DiCA-In to which an aqueous calcium solution (0.2 M Ca) and a commercialized intrinsic stimulus reagent (+PBS(v/v=1/5)) were added, were conducted. The amount was unifiedly set to be 12 uL per 180 uL of blood.
# The time of 10 minutes determinative of coagulation time was taken as an investigation time (FIG. 12-1), the maximum value was taken as 1, and the reciprocal of the difference therefrom was calculated (calculated CF), the results being depicted in FIG. 12-2. An average value obtained in the case where NaCl was added (control) was 17.7, whereas an average value obtained in the case where the platelet inducing substance was added was 12.7 (n=4).
Compound,difference between control and platelet inducing substance (platelet contribution part) (combination with ADP),"amplitude of time variation in dielectric constant (normalized) at 100 kHz (whole blood, versus +NaCl control)"
CCCCC[C@H](O)/C=C/[C@H]1[C@H](O)CC(=O)[C@@H]1CCCCCCC(=O)O [prostaglandin E1],this difference is reduced,–
thrombin receptive activated protein [TRAP],–,the amplitude is raised
